# Results: patent US12295952B2, “Methods of treating heart failure with cardiac sarcomere activators” (Amgen Inc., priority 2017, dated 2025)
# Values joined by “and” are separate entries in the source; they are usually repeats but may differ in a detail not shown here. Equal values may be shown once. “Also recorded” adds a separate entry of the source.
# Key:
# [1] = COSMIC-HF: concentrations of omecamtiv mecarbil in plasma; type: in vivo; details: for Maximum Concentration / Predose Concentration: mean (SD)
# Method: (§1) In this randomized, double-blind study, done at 87 sites in 13 countries, patients with stable, symptomatic chronic heart failure and left ventricular ejection fraction 40% or lower were recruited. Patients were randomly assigned equally, via an interactive web response system, to receive 25 mg oral omecamtiv mecarbil twice daily (fixed-dose group), 25 mg twice daily titrated to 50 mg twice daily guided by pharmacokinetics (pharmacokinetic-titration group), or placebo for 20 weeks. The maximum concentration of omecamtiv mecarbil in plasma (primary endpoint) and changes in cardiac function and ventricular diameters were assessed. This trial is registered with ClinicalTrials.gov, number NCT01786512.
# All patients received study treatment or placebo for 20 weeks and were followed up at week 24 after randomization. Patients in the pharmacokinetic-titration group received 25 mg omecamtiv mecarbil twice daily for 2 weeks to reach a steady state. If the trough omecamtiv mecarbil concentration in plasma before the morning dose (predose concentration) at 2 weeks was less than 200 ng/mL, the dose was titrated up to 50 mg twice daily at week 8. If the predose concentration was 200 ng/mL or higher, patients continued taking 25 mg twice daily until the end of the study. To access the pharmacokinetics in this population more rigorously than permitted by just trough sampling, intensive pharmacokinetic sampling was done at the end of weeks 2 and 12, over a period of 8 h on each day.
# (§2) The primary endpoint was the maximum concentration of omecamtiv mecarbil at the week 2 and 12 visits and the predose concentration at the week 2, 8, 12, 16, and 20 visits. Secondary endpoints were changes from baseline in systolic ejection time, stroke volume, left ventricular end-systolic and end-diastolic diameters, heart rate, and concentration of NT-proBNP in plasma at week 20. Additional prespecified exploratory echocardiographic endpoints included left ventricular fractional shortening, end-systolic and end-diastolic volumes, and ejection fraction. The clinical events committee adjudicated whether admissions to hospital and deaths and all episodes of myocardial ischaemia or infarction reported by investigators or based on an increase of cardiac troponin I concentration in plasma met the criteria for study endpoints.
# [2] = test system: patients with stable, symptomatic chronic heart failure and left ventricular ejection fraction 40% or lower; test: COSMIC-HF: safety variables and adverse events; type: in vivo
# Method: as §1
# (§3) Patients attended study clinics at weeks 2 and 8, after which visits were every 4 weeks until week 24. Transthoracic echocardiograms were done at baseline, week 12, and week 20 and analyzed centrally. Blood samples were obtained at specified visits for analysis in the central laboratory.
# as §2
# patients = details: previous work, similar population of patients; cited from earlier work
# [3] = test system: patients with stable, symptomatic chronic heart failure and left ventricular ejection fraction 40% or lower; test: COSMIC-HF: changes in cardiac function, ventricular diameters, heart rate and NT-proBNP; type: in vivo, human; details: for NT-proBNP concentration in plasma, difference versus placebo: 4 weeks after omecamtiv mecarbil was stopped
# Method: as §1, §3, §2
# The standard deviations (SDs) for maximum and minimum concentrations of omecamtiv mecarbil in plasma were assumed to be in the range of 40-140 ng/mL.^6-8,11-13 On this basis, it was calculated that 142 patients in the pharmacokinetic-titration group would provide a two-sided 95% CI with half width of 6·6-23·0 ng/mL, assuming that 5% of patients would not have assessable concentrations of omecamtiv mecarbil, which was deemed sufficient for accurate population estimates of these concentrations. Previous work in a similar population of patients had shown that plasma concentrations of omecamtiv mecarbil as low as 100-200 ng/mL had some effect on cardiac function, but that the effect on stroke volume seemed to plateau with concentrations greater than 400 ng/mL, and that plasma concentrations greater than 1200 ng/mL were not clinically tolerated.^7 Thus, it was attempted to achieve a maximum concentration greater than 200 ng/mL and avoid exposures to concentrations greater than 1000 ng/mL. Additionally, with 150 patients in each group and significance set at α=0·05 (two-sided), it was estimated that the statistical power for detecting a treatment effect on the echocardiographic endpoints of systolic ejection time, stroke volume, and left ventricular end-systolic diameter would be more than 90%. Differences between groups for changes in echo cardio graphic variables, heart rate, and NT-proBNP concentrations from baseline were estimated with a repeated measures model fitted separately for each variable and that included the stratification factors of presence or absence of atrial fibrillation or flutter at randomisation, baseline value, treatment group, visit, and treatment group by visit interaction. An unstructured covariance matrix was used to account for the correlation between visits within patients. Least squares mean differences with 95% CIs of the mean relative to placebo are presented unless otherwise indicated. As the study was hypothesis generating, all p values are nominal with no multiplicity adjustment. This study is registered with ClinicalTrials.gov, number NCT01786512.
# [4] = Week 2, fixed-dose group (25 mg twice daily)
# [5] = Week 12, fixed-dose group (25 mg twice daily)
# [6] = Week 12, fixed-dose group (25 mg twice daily), listed as OM
# [7] = Week 12, fixed-dose group, of 137 patients with measurements
# [8] = Week 12, pharmacokinetic-titration group
# [9] = Week 12, pharmacokinetic-titration group, listed as OM
# [10] = Week 12, pharmacokinetic-titration group, of 127 patients with measurements
# [11] = pharmacokinetic-titration group
# [12] = pharmacokinetic-titration OM group (n = 146)
# [13] = week 20, pharmacokinetic-titration group
compound,measurement,setting,value
COC(=O)N1CCN(Cc2cccc(NC(=O)Nc3ccc(C)nc3)c2F)CC1 [omecamtiv mecarbil],Maximum Concentration,[1]; [4],212 (70.4) 33.2% ng/mL
same,Predose Concentration,[1]; [4],174 (62.2) 35.7% ng/mL
same,Predose Concentration,"[1]; Week 2, pharmacokinetic-titration group (25 mg titrated to 50 mg twice daily)",179 (68.8) 38.4% ng/mL
same,Maximum Concentration,"[1]; Week 2, pharmacokinetic-titration group",212 (81.0) 38.2% ng/mL
same,Predose Concentration,"[1]; Week 8, fixed-dose group (25 mg twice daily)",156 (69.1) 44.2% ng/mL
same,Predose Concentration,"[1]; Week 8, pharmacokinetic-titration group",161 (74.4) 46.1% ng/mL
same,Maximum Concentration,[1]; [5],200 (SD 71) ng/mL and 200 (71) ng/mL
same,Predose Concentration,[1]; [5],165 (SD 68) ng/mL
same,Maximum Concentration,[1]; [6],200 (71.1) 35.6% ng/mL
same,Predose Concentration,[1]; [6],165 (67.9) 41.3% ng/mL
same,"Patients with maximum drug concentrations in plasma greater than or equal to 200 ng/mL, %",[1]; [7],46%
same,"Patients with maximum drug concentrations in plasma greater than or equal to 200 ng/mL, number",[1]; [7],63
same,Maximum Concentration,[1]; [8],318 (129) ng/mL
same,Predose Concentration,[1]; [8],263 (116) ng/mL
same,Maximum Concentration,[1]; [9],318 (129) 40.5% ng/mL
same,Predose Concentration,[1]; [9],263 (116) 44.1% ng/mL
same,"Patients with maximum drug concentrations in plasma greater than or equal to 200 ng/mL, %",[1]; [10],87%
same,"Patients with maximum drug concentrations in plasma greater than or equal to 200 ng/mL, number",[1]; [10],110
same,Predose Concentration,"[1]; Week 16, fixed-dose group (25 mg twice daily)",155 (69.0) 44.6% ng/mL
same,Predose Concentration,"[1]; Week 16, pharmacokinetic-titration group",240 (120) 50.0% ng/mL
same,Predose Concentration,"[1]; Week 20, fixed-dose group (25 mg twice daily)",149 (71.2) 47.8% ng/mL
same,Predose Concentration,"[1]; Week 20, pharmacokinetic-titration group",239 (118) 49.5% ng/mL
same,Maximum observed concentration in plasma at any time during the study,[1]; fixed-dose group,453 ng/mL
same,Maximum observed concentration in plasma at any time during the study,[1]; [11],831 ng/mL
same,Patients with a maximum concentration greater than 750 ng/mL,[1]; [11],one
same,"Frequencies of adverse events, serious adverse events and deaths across groups (versus placebo)",[2]; 20 weeks of treatment,did not differ; also recorded: similar
same,"Adjudicated clinical events: Cardiovascular death, %",[2]; fixed-dose OM group (n = 150),(1%)
same,"Adjudicated clinical events: Cardiovascular death, number",[2]; fixed-dose OM group (n = 150),1
same,"Adjudicated clinical events: Death, %",[2]; fixed-dose OM group (n = 150),(1%)
same,"Adjudicated clinical events: Death, number",[2]; fixed-dose OM group (n = 150),1
same,"Adjudicated clinical events: Hospital admission: Chest paint†, %","[2]; human, in vivo, 20 weeks",(1%)
same,"Adjudicated clinical events: Hospital admission: Chest paint†, number","[2]; human, in vivo, 20 weeks",2
same,"Adjudicated clinical events: Hospital admission: Myocardial infarction, %","[2]; human, in vivo, 20 weeks",(1%)
same,"Adjudicated clinical events: Hospital admission: Myocardial infarction, number","[2]; human, in vivo, 20 weeks",1
same,"Adjudicated clinical events: Hospital admission: Unstable angina, %","[2]; human, in vivo, 20 weeks",(1%)
same,"Adjudicated clinical events: Total myocardial infarction**, %","[2]; human, in vivo, 20 weeks",(1%)
same,"Serious adverse events: Acute cardiac failure, %","[2]; human, in vivo, 20 weeks",(2%)
same,"Serious adverse events: Acute cardiac failure, number","[2]; human, in vivo, 20 weeks",3
same,"Serious adverse events: Cardiac, %","[2]; human, in vivo, 20 weeks",(12%)
same,"Serious adverse events: Congestive cardiac failure, %","[2]; human, in vivo, 20 weeks",(2%)
same,"Serious adverse events: Congestive cardiac failure, number","[2]; human, in vivo, 20 weeks",3
same,"Serious adverse events: Ventricular tachycardia, %","[2]; human, in vivo, 20 weeks",(1%)
same,"Adjudicated clinical events: Hospital admission: Myocardial infarction, number",[2]; in vivo,0
same,Cardiac troponin | concentrations: Change to Week 24,[2]; in vivo,0 ng/mL
same,Share of maximum cardiac troponin I increases from baseline that were less than 0·1 ng/mL,[2]; in vivo,92%
same,Share of maximum cardiac troponin I increases from baseline that were less than 0·2 ng/mL,[2]; in vivo,97%
same,Time for plasma cardiac troponin I to return to baseline levels after discontinuing,[2]; in vivo,≤ 4 weeks
same,Troponin-triggered potential adverse events deemed myocardial ischaemia or myocardial infarction on adjudication,[2]; in vivo,none
same,"Adjudicated clinical events: Cardiovascular death, %",[2]; [12],(1%)
same,"Adjudicated clinical events: Cardiovascular death, number",[2]; [12],2
same,"Adjudicated clinical events: Death, %",[2]; [12],(2%)
same,"Adjudicated clinical events: Death, number",[2]; [12],3
same,Plasma concentrations at which the effect on stroke volume seemed to plateau,patients,greater than 400 ng/mL
same,Plasma concentrations not clinically tolerated,patients,greater than 1200 ng/mL
same,Plasma concentrations that had some effect on cardiac function (as low as),patients,100 to 200 ng/mL
same,"NT-proBNP concentration in plasma, difference versus placebo",[3]; fixed-dose group,-1327 pg/mL
same,"NT-proBNP concentration in plasma, difference versus placebo",[3]; [11],-1306 pg/mL
same,"Systolic ejection times, average increases","[3]; chronic oral administration, across both omecamtiv mecarbil groups",11 to 25 ms
same,"NT-proBNP concentration in plasma, least square mean difference versus placebo","[3]; week 20, fixed-dose group",-822 pg/mL
same,"Stroke volume, least square mean difference versus placebo","[3]; week 20, fixed-dose group",5 mL
same,"Systolic ejection time, least square mean difference versus placebo","[3]; week 20, fixed-dose group",11 ms
same,Fractional shortening compared with placebo,[3]; [13],increases
same,Left ventricular end-diastolic and end-systolic volumes compared with placebo,[3]; [13],reductions
same,"NT-proBNP concentration in plasma, least square mean difference versus placebo",[3]; [13],-970 pg/mL
same,"Stroke volume, least square mean difference versus placebo",[3]; [13],3.6 mL and 4 mL
same,"Systolic ejection time, least square mean difference versus placebo",[3]; [13],25 ms
